Results from US5296591A, “Trifluoromethylketone derivatives, processes for preparation thereof and use thereof” (Fujisawa Pharmaceutical Co., Ltd., priority 1990, dated 1994).
Like-named read-outs stand apart in the source and are kept apart here.

Assays:
[1] = molecular target: T1, human sputum elastase (HSE) (Homo sapiens, UniProt P08246); test: Protease inhibition assay (in vitro), human sputum elastase; format: biochemical; details: substrate methoxysuccinyl-(Ala)2-Pro-Val-p-nitroanilide, 30 min, room temperature, pH 7.5
T1 construct: HSE was obtained from Elastin Products Company Inc., Mo., U.S.A; purchased Elastin Products Company Inc; host or cells: human sputum (from the enzyme's name)
T1 sequence (P08246 30-267): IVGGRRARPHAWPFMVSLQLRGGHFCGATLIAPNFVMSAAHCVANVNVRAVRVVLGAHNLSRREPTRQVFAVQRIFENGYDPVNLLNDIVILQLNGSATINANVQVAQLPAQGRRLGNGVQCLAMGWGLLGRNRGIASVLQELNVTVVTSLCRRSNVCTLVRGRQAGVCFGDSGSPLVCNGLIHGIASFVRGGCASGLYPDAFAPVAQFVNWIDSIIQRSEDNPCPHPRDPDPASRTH
Description: (§1) A buffer used throughout the assay was 0.1M HEPES (4-(2-hydroxyethyl)-1-piperazineethanesulfonic acid) containing 0.5M NaCl, pH 7.5. Twenty-five microliters of 2 mM methoxysuccinyl-(Ala)2 -Pro-Val-p-nitroanilide (100 mM of dimethyl sulfoxide solution were diluted in the buffer) and 50 μl of sample (10 μl of sample in organic solvent was diluted 5-fold in the buffer) were mixed in wells of 96 well-microliter plate. An absorbance of the mixture in wavelength at 415 nm was measured by a microplate reader (Corona Electric Co., Ibaraki, Japan). After the measurement, 25 μl of 6 μg/ml human sputum elastase (HSE) was added and the mixture was allowed to stand for 30 minutes at room temperature. Then, the absorbance at 415 nm was measured. Percent inhibition by drug was determined by 100×(1-"r" inhibitor present/"r" inhibitor absent), where "r" is absorbance after 30 minutes incubation minus absorbance before enzyme addition. Effect of inhibitors against porcine pancreas elastase (Type IV, 5 μg/ml final) was assayed similarly using N-succinyl-(Ala)3 -p-nitroanilide. HSE was obtained from Elastin Products Company Inc., Mo., U.S.A. All other substrates and protease were purchased from Sigma Chemicals Co.

[2] = molecular target: T2, porcine pancreas elastase (Type IV) (Sus scrofa, UniProt P00772); test: Protease inhibition assay (in vitro), porcine pancreas elastase; format: biochemical; details: substrate N-succinyl-(Ala)3-p-nitroanilide, enzyme 5 μg/ml final
T2 construct: purchased Sigma Chemicals Co; host or cells: porcine pancreas (from the enzyme's name)
Description: as §1

[3] = tested on: human sputum elastase-induced lung hemorrhage in hamsters; test: Elastase-induced pulmonary damage (lung hemorrhage) in hamsters; format: in vivo, hamster; details: 5 min predose; for Hemorrhage (OD541 nm): BAL hemoglobin 3 h after elastase; for ED50 elastase-induced lung hemorrhage: intratracheal
Description: Hamsters under pentobarbital anesthesia were used. Saline or saline-containing human sputum elastase was instilled intratracheally via a small incision in the ventral neck region using 1-ml syringe with a 27-gauge needle. After 3 hours, animals were sacrificed by CO2 asphyxiation, each animal's trachea was reexposed. The lungs were then laveged using a 2.5-ml aliquot of saline and then withdrawing the saline, yielding a final volume of approximately 1.5 ml bronchoalveolar lavage (BAC) fluid from each animal.
The cells of BAL fluid were collected by centrifugation and were then diluted with distilled water to disrupt, and the hemoglobin contents determined spectrophotometrically at 541 nm.
Test drugs were dissolved in saline or methyl cellulose, and instilled intratracheally in the same manner as used to instill elastase, at 5 minutes before instillation of elastase.

[4] = read-out: IC50 Porcine pancreas elastase

T2 sequence (P00772 27-266): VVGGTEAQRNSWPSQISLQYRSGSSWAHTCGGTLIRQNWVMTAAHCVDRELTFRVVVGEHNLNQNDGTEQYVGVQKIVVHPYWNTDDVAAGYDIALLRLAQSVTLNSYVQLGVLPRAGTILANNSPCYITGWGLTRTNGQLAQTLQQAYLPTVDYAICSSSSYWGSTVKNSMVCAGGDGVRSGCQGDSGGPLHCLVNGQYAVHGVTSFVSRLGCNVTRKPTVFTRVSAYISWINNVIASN

Molecule | IC50 [1] [µM] | IC50 [2, 4] [µM] | % inhibition of elastase-induced lung hemorrhage ([3]; 1 μg/site intratracheal) [%] | Hemorrhage (OD541 nm) ([3]; 1 μg/site intratracheal) | % inhibition of elastase-induced lung hemorrhage ([3]; 10 μg/site intratracheal) [%] | Hemorrhage (OD541 nm) ([3]; 10 μg/site intratracheal) | % inhibition of elastase-induced lung hemorrhage ([3]; 100 μg/site intratracheal) [%] | Hemorrhage (OD541 nm) ([3]; 100 μg/site intratracheal) | ED50 elastase-induced lung hemorrhage [3] [μg/site] | IC50 ([2]; IC50 Porcine pancreas elastase) [µM]
3(RS)-[[4-(Carboxymethylaminocarbonyl)phenylaminocarbonyl]-L-valyl-L-prolyl] amino-1,1,1-trifluoro-2-oxo-4-methylpentane [Example 23] | 0.81 | 2.4 | 16.0 | 9.435 ± 0.941 | 75.6 | 3.412 ± 1.31 | 102.1 | 0.7258 ± 0.303 | 3.2 | –
CC(C)C(NC(=O)[C@@H]1CCCN1C(=O)[C@@H](NC(=O)c1ccc(C(=O)NCC(=O)O)cc1)C(C)C)C(=O)C(F)(F)F (mixture of isomers) [Example 13, 3(RS)-[[4-(carboxymethylaminocarbonyl)phenylcarbonyl]-L-valyl-L-prolyl]amino-1,1,1-trifluoro-4-methyl-2-oxopentane] | 0.72 | – | 21.6 | 11.63 ± 1.99 | 74.5 | 4.217 ± 1.02 | 100.0 | 0.6384 ± 0.222 | 3.0 | 3.3
CC(C)C(NC(=O)[C@@H]1CCCN1C(=O)[C@@H](NC(=O)c1ccc(C(=O)NCCCC(=O)OCC(=O)c2ccccc2)cc1)C(C)C)C(=O)C(F)(F)F (mixture of isomers) [Example 3, 3(RS)-[[4-[(3-Benzoylmethoxycarbonyl)propylaminocarbonyl]phenylcarbonyl]-L-valyl-L-prolyl]amino-1,1,1-trifluoro-4-methyl-2-oxopentane] | 0.98 | 8.7 | – | – | – | – | – | – | – | –
CC(C)C(NC(=O)[C@@H]1CCCN1C(=O)[C@@H](NC(=O)c1ccc(C(=O)NN2CCOCC2)cc1)C(C)C)C(=O)C(F)(F)F (mixture of isomers) [Example 4, 3(RS)-[[4-[(4-Morpholino)aminocarbonyl]-phenylcarbonyl]-L-valyl-L-prolyl]amino-1,1,1-trifluoro-4-methyl-2-oxopentane] | 1.4 | 2.9 | – | – | – | – | – | – | – | –
CC(C)C(NC(=O)[C@@H]1CCCN1C(=O)[C@@H](NC(=O)c1ccc(C(=O)N[C@H](Cc2ccccc2)C(=O)OCc2ccccc2)cc1)C(C)C)C(=O)C(F)(F)F (mixture of isomers) [Example 8, 3(RS)-[[4-[[(1(R)-Benzyloxycarbonyl)-2-phenyl]ethylaminocarbonyl]phenylcarbonyl]-L-valyl-L-prolyl]amino-1,1,1-trifluro-4-methyl-2-oxopentane] | 0.87 | 16 | – | – | – | – | – | – | – | –
CC(C)C(NC(=O)[C@@H]1CCCN1C(=O)[C@@H](NC(=O)c1ccc(C(=O)N[C@@H](Cc2ccccc2)C(=O)OCc2ccccc2)cc1)C(C)C)C(=O)C(F)(F)F (mixture of isomers) [Example 9, 3(RS)-[[4-[[(1(S)-Benzyloxycarbonyl)-2-phenyl]ethylaminocarbonyl]phenylcarbonyl]-L-valyl-L-prolyl]amino-1,1,1-trifluoro-4-methyl-2-oxopentane] | 0.87 | 9.5 | – | – | – | – | – | – | – | –
CC(C)C(NC(=O)[C@@H]1CCCN1C(=O)[C@@H](NC(=O)c1ccc(C(=O)NCC(=O)O)cc1)C(C)C)C(=O)C(F)(F)F (single isomer, unassigned) [Example 15, 3(R or S)-[[4-(Carboxymethylaminocarbonyl)phenylcarbonyl]-L-valyl-L-prolyl]amino-1,1,1-trifluoro-2-oxo-4-methylpentane] | 0.61 | – | – | – | – | – | – | – | – | 2
CC(C)C(NC(=O)[C@@H]1CCCN1C(=O)[C@@H](NC(=O)c1ccc(C(=O)NCC(=O)O)cc1)C(C)C)C(=O)C(F)(F)F (single isomer, unassigned) [Example 16, 3(R or S)-[[4-(Carboxymethylaminocarbonyl)phenylcarbonyl]-L-valyl-L-prolyl]amino-1,1,1-trifluoro-2-oxo-4-methylpentane] | 7.1 | – | – | – | – | – | – | – | – | 30
